From ChEMBL document CHEMBL1909046, “DrugMatrix in vitro pharmacology data”

What was measured:
[1] = target: T1, C-X-C chemokine receptor type 2 (Homo sapiens, UniProt P25025); format: cell membranes, Membrane; details: cho-k1; further: in other assays of this panel Not Active means under 50% inhibition at 10 µM
T1 sequence (P25025 whole entry): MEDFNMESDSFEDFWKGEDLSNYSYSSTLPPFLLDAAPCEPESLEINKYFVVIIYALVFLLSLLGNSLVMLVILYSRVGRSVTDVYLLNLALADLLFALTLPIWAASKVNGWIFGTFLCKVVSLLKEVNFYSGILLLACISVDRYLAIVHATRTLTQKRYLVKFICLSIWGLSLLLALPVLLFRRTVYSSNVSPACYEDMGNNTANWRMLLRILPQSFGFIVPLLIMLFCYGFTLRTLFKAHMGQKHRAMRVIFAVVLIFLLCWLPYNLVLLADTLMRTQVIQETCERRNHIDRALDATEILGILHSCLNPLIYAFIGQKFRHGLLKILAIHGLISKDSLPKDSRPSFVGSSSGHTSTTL

[2] = target: T2, Nitric oxide synthase, inducible (Mus musculus, UniProt P29477); design: species or system Escherichia coli;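 further: inhibition of iNOS enzyme activity measured with L-arginine as substrate; in other assays of this panel Not Active means under 50% inhibition at 10 µM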
T2 sequence (P29477 whole entry): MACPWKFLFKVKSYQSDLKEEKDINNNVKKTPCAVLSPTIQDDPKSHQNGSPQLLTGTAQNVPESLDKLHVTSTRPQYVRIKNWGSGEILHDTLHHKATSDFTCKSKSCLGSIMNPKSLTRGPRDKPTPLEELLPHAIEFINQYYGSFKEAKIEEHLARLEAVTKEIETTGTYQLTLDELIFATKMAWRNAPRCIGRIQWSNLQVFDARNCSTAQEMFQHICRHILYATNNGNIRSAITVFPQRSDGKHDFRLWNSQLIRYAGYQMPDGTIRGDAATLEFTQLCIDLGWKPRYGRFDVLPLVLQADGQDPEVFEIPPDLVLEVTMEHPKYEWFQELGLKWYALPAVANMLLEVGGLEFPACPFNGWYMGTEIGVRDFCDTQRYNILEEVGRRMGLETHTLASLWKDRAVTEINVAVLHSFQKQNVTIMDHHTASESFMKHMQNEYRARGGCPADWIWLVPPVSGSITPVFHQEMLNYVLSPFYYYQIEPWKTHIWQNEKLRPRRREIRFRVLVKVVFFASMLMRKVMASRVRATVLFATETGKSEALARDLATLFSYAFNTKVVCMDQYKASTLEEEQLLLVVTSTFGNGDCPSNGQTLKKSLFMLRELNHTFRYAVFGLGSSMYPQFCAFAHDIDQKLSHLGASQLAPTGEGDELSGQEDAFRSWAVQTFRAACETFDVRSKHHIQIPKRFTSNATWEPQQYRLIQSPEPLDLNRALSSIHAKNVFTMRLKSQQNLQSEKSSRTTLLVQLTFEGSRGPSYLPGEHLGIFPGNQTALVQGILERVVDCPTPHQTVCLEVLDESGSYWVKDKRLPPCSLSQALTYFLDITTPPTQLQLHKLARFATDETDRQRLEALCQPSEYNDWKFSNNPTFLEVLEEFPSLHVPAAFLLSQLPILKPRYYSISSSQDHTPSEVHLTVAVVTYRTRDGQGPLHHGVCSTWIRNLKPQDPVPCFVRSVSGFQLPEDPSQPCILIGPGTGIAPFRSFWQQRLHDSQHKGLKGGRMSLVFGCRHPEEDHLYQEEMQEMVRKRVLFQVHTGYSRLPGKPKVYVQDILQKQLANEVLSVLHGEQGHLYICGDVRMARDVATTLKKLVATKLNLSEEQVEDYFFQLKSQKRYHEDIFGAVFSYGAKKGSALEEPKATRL

Substance-K receptor = target: T3, Substance-K receptor (Homo sapiens, UniProt P21452); format: cell membranes, CHO, Membrane; further: in other assays of this panel Not Active means under 50% inhibition at 10 µM
T3 sequence (P21452 whole entry): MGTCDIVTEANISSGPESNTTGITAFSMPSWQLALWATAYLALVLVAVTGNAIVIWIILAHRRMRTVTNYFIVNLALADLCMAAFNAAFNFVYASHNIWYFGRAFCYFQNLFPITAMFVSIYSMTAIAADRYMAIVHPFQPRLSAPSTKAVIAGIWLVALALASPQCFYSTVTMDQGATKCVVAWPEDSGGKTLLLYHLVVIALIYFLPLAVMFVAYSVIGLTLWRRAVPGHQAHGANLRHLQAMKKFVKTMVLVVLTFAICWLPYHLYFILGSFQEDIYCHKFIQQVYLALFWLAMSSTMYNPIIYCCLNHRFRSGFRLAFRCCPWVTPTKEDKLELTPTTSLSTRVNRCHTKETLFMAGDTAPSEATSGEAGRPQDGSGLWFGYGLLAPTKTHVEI

Melanocortin receptor 3 = Melanocortin receptor 3 (Homo sapiens, UniProt P41968); format: cell membranes, HEK293, Membrane; details: hek293; further: in other assays of this panel Not Active means under 50% inhibition at 10 µM
[3] = DRUGMATRIX: Purinergic P2X radioligand binding (ligand: [3H] alpha, beta-Methylene-ATP); format: cell membranes, Oryctolagus cuniculus, New Zealand albino, Urinary bladder, Membrane; details: Not Active = under 50% inhibition at 10 µM
Thromboxane-A synthase = target: T4, Thromboxane-A synthase (Homo sapiens, UniProt P24557); assay: biochemical; format: tissue-based, Platelet
T4 sequence (P24557 whole entry): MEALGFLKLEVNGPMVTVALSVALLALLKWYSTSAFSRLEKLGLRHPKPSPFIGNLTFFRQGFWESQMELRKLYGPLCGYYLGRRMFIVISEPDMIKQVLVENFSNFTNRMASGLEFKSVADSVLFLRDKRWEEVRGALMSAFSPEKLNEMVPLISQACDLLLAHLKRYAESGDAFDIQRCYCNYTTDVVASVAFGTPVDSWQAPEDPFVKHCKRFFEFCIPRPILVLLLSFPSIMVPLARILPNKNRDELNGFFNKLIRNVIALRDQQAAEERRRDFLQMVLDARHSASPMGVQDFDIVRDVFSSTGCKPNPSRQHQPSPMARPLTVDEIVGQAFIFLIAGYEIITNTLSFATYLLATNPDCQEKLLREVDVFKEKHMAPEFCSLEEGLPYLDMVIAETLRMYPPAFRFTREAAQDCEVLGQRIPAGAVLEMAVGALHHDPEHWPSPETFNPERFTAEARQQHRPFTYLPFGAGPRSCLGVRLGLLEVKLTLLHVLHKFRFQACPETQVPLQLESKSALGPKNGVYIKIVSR

Vasopressin V1a receptor = Vasopressin V1a receptor (Homo sapiens, UniProt P37288); format: cell membranes, Membrane; details: hek293; further: in other assays of this panel Not Active means under 50% inhibition at 10 µM
Vasopressin V1a receptor, sequence (P37288 whole entry): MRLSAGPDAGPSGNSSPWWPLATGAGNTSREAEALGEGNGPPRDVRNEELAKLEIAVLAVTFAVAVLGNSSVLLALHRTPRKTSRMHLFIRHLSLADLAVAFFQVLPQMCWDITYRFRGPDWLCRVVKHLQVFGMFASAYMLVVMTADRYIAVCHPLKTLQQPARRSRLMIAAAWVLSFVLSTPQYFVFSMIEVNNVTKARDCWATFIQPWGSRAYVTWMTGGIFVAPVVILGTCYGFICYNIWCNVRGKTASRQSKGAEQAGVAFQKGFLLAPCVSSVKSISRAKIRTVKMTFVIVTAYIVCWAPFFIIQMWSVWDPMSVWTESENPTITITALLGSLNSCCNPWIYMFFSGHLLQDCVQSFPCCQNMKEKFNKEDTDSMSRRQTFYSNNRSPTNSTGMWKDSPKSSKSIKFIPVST

Melanocortin receptor 3, sequence (P41968 whole entry): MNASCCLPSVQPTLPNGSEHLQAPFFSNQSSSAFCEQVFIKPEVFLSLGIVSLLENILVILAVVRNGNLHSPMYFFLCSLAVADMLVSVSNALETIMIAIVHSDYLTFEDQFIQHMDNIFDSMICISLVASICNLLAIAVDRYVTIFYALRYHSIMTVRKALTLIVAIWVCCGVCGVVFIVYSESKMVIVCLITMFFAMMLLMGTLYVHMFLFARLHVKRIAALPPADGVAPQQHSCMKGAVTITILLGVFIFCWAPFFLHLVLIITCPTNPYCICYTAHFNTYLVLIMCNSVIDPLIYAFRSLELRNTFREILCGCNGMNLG

| Compound | IC50 [1] | IC50 [2] | IC50 (Substance-K receptor; cho) | IC50 (Melanocortin receptor 3) | IC50 [3] | Ki [3] | IC50 (Thromboxane-A synthase; platelet) | IC50 (Vasopressin V1a receptor) | IC50 (Substance-K receptor; read-out: IC50) [µM] | Ki (Substance-K receptor; read-out: Ki) [µM] | IC50 (Thromboxane-A synthase; read-out: IC50) [µM] | Ki [1] | Ki [2] | Ki (Substance-K receptor; cho) | Ki (Melanocortin receptor 3) | Ki (Thromboxane-A synthase; platelet) | Ki (Vasopressin V1a receptor) |
| --- | --- | --- | --- | --- | --- | --- | --- | --- | --- | --- | --- | --- | --- | --- | --- | --- | --- |
| Cc1c(C)c2c(c(C)c1O)CC[C@@](C)(CCC[C@H](C)CCC[C@H](C)CCCC(C)C)O2 [ALPHA-TOCOPHEROL] | Not Active | Not Active | Not Active | Not Active | Not Active | Not Active | Not Active | Not Active |  |  |  |  |  |  |  |  |  |
| O=C(O)CCCc1ccc(N(CCCl)CCCl)cc1 [CHLORAMBUCIL] | Not Active | Not Active | Not Active | Not Active | Not Active | Not Active | Not Active | Not Active |  |  |  |  |  |  |  |  |  |
| CC[C@@]1(O)C[C@H](O[C@H]2C[C@H](N(C)C)[C@H](O[C@H]3C[C@H](O)[C@H](O[C@H]4CCC(=O)[C@H](C)O4)[C@H](C)O3)[C@H](C)O2)c2c(cc3c(c2O)C(=O)c2c(O)cccc2C3=O)[C@H]1C(=O)OC [ACLARUBICIN] | Not Active | Not Active | Not Active | Not Active | Not Active | Not Active | Not Active | Not Active |  |  |  |  |  |  |  |  |  |
| CC(=O)O[C@@]12CO[C@@H]1C[C@H](O)[C@@]1(C)C(=O)[C@H](O)C3=C(C)[C@@H](OC(=O)[C@H](O)[C@@H](NC(=O)OC(C)(C)C)c4ccccc4)C[C@@](O)([C@@H](OC(=O)c4ccccc4)[C@H]21)C3(C)C.O.O.O [DOCETAXEL] | Not Active | Not Active |  | Not Active | Not Active | Not Active | Not Active | Not Active | 1.56 | 0.521 |  |  |  |  |  |  |  |
| CC(C)CN(C[C@@H](O)[C@H](Cc1ccccc1)NC(=O)O[C@H]1CCOC1)S(=O)(=O)c1ccc(N)cc1 | Not Active | Not Active | Not Active | Not Active | Not Active | Not Active |  | Not Active |  |  | 6.73 |  |  |  |  |  |  |
| C[C@](N)(Cc1ccc(O)c(O)c1)C(=O)O [METHYLDOPA] | Not Active | Not Active | Not Active | Not Active | Not Active | Not Active | Not Active | Not Active |  |  |  |  |  |  |  |  |  |
| Nc1nc(N)nc(-c2cc(Cl)ccc2Cl)n1.O=C(O)/C=C\C(=O)O [IRSOGLADINE MALEATE] | Not Active | Not Active | Not Active | Not Active | Not Active | Not Active | Not Active | Not Active |  |  |  |  |  |  |  |  |  |
| Nc1ncn([C@@H]2O[C@H](CO)[C@@H](O)[C@H]2O)c(=O)n1 [AZACITIDINE] | Not Active | Not Active | Not Active | Not Active | Not Active | Not Active | Not Active | Not Active |  |  |  |  |  |  |  |  |  |
| LIPOPOLYSACCHARIDE E. COLI O55:B5 | Not Active | Not Active | Not Active | Not Active | Not Active | Not Active | Not Active | Not Active |  |  |  | Not Active | Not Active | Not Active | Not Active | Not Active | Not Active |
| CCCCN1CCCC[C@H]1C(=O)Nc1c(C)cccc1C [LEVOBUPIVACAINE] | Not Active | Not Active | Not Active | Not Active | Not Active | Not Active | Not Active | Not Active |  |  |  |  |  |  |  |  |  |
